Consider five compounds from patent publication US20020137929A1, “1 - (3-heterocyclylphenyl) isothiourea, -isourea, -guanidine and -amidine herbicidal agents” (Intellectual Property Department, BASF Aktiengesellschaft, priority 1998, published 2002).

In one assay the test system is CASOB (Sicklepod). Kind of assay: Postemergence herbicidal evaluation. The assay is classed as in vivo, Cassia obtusifolia. Conditions: postemergence. The essentials:
(§1)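 Seedlings grown about two weeks were sprayed at 40 psi with compound dispersed in 50/50 acetone/water plus 0.5% TWEEN 20, at about 0.0156 to 0.500 kg/ha. Plants were kept in the greenhouse and scored 4–5 weeks later on a 0–9 visual scale against untreated controls.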

The subject of assay [1] is CHEAL (Lambsquarters, Common). Kind of assay: Postemergence herbicidal evaluation. The assay is classed as in vivo, Chenopodium album. Conditions: postemergence. The essentials: as §1
The subject of assay [2] is TRZAWR (Wheat, Winter, cv Riband). Briefly: Postemergence herbicidal evaluation. Particulars: postemergence. The assay is classed as in vivo, Triticum aestivum. The essentials:
as §1

The test system of assay [3] is CHEAL (Lambsquarters, Common). Kind of assay: Preemergence herbicidal evaluation. The assay is classed as in vivo, Chenopodium album. Conditions: rated 4-5 weeks after treatment. The essentials: (§2)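 Preemergence soil application of compound, sprayed in aqueous acetone at rates equivalent to about 0.0156 to 0.500 kg per hectare onto freshly sown cups. Plant response was judged by eye on a 0-9 scale four to five weeks later.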

Another assay relates to ORYSAT (Rice, Tebonnet). Briefly: Preemergence herbicidal evaluation. The assay is classed as in vivo, Oryza sativa, (L.) Tebonnet. Particulars: rated 4-5 weeks after treatment. Put shortly: as §2
[4] abbreviates: rate 0.0156 kg/ha, rating scale 0-9.
The mark [5] stands for this setting: rate 0.0313 kg/ha, rating scale 0-9.
Where [6] appears, read: rate 0.0625 kg/ha, rating scale 0-9.
[7] abbreviates: rate 0.1250 kg/ha, rating scale 0-9.
Setting [8] is: rate 0.2500 kg/ha, rating scale 0-9.

In the case of `Cn1c(C(F)(F)F)cc(=O)n(-c2cc(N=C3SCC(=O)N3C3CCC3)c(Cl)cc2F)c1=O` [Compound 168, 3-{4-Chloro-5-[(3-cyclobutyl-4-oxo-2-thiazolidinylidene)amino]-2-fluorophenyl}-1-methyl-6-(trifluoromethyl)-2,4(1H,3H)-pyrimidinedione], the “Herbicidal rating CASOB” value is recorded as 0.0 in the assay with CASOB (Sicklepod) (rate 0.0156 kg/ha), 0.0 with CASOB (Sicklepod) (rate 0.0313 kg/ha) and 2.0 in the assay with CASOB (Sicklepod) (rate 0.0625 kg/ha). Besides, the “Herbicidal rating CHEAL” value stood at 2.0 in assay [1] (rate 0.0156 kg/ha), 3.0 in assay [1] (rate 0.0313 kg/ha) and 4.0 in assay [1] (rate 0.0625 kg/ha). Besides, the entries for the “Herbicidal rating TRZAWR” value in assay [2] (rate 0.0156 kg/ha), in assay [2] (rate 0.0313 kg/ha) and in assay [2] (rate 0.0625 kg/ha) were 3.5, 3.5 and 4.0, respectively. Also, the “Preemergence herbicidal rating CHEAL” value in assay [3] (0.0156 kg/ha) is given as 3.0; in assay [3] (0.0313 kg/ha), 9.0; in assay [3] (0.0625 kg/ha) it was 9.0; in assay [3] (0.1250 kg/ha), 9.0; in assay [3] (0.2500 kg/ha) it was 9.0. Also, the “Preemergence herbicidal rating ORYSAT” value with ORYSAT (Rice, Tebonnet) (0.0156 kg/ha) worked out at 0.0; with ORYSAT (Rice, Tebonnet) (0.0313 kg/ha), 0.0; in the assay with ORYSAT (Rice, Tebonnet) (0.0625 kg/ha), 0.0; with ORYSAT (Rice, Tebonnet) (0.1250 kg/ha), 0.0; in the assay on ORYSAT (Rice, Tebonnet) (0.2500 kg/ha) it was 0.0.
For `CCOC(=O)CN1C(=O)C(CC(=O)O)SC1=Nc1cc(N2C(=O)CC(C(F)(F)F)CC2=O)c(F)cc1Cl` (stereo not drawn) [Compound 170, 2-{{2-Chloro-5-[2,6-dioxo-4-(trifluoromethyl)-piperidino]-4-fluorophenyl}imino}-4-oxo-3,5-thiazolidinediacetic acid, 3-ethyl ester], the “Herbicidal rating CASOB” value was found to be 0.0 in the assay with CASOB (Sicklepod) (rate 0.0156 kg/ha), 0.0 in the assay on CASOB (Sicklepod) (rate 0.0313 kg/ha) and 1.0 in the assay with CASOB (Sicklepod) (rate 0.0625 kg/ha). Also, the “Herbicidal rating CHEAL” value in assay [1] (rate 0.0156 kg/ha) is 4.0; in assay [1] (rate 0.0313 kg/ha) it was 9.0; in assay [1] (rate 0.0625 kg/ha), 9.0. In addition, the results for the “Herbicidal rating TRZAWR” value in assay [2] (rate 0.0156 kg/ha), in assay [2] (rate 0.0313 kg/ha) and in assay [2] (rate 0.0625 kg/ha) were 3.5, 4.0 and 5.0, respectively. In addition, the “Preemergence herbicidal rating CHEAL” value in assay [3] (0.0156 kg/ha), in assay [3] (0.0313 kg/ha), in assay [3] (0.0625 kg/ha), in assay [3] (0.1250 kg/ha) and in assay [3] (0.2500 kg/ha) was 9.0 each time. Further, the “Preemergence herbicidal rating ORYSAT” value in the assay with ORYSAT (Rice, Tebonnet) (0.0156 kg/ha) was determined as 0.0; in the assay with ORYSAT (Rice, Tebonnet) (0.0313 kg/ha) it was 0.0; in the assay with ORYSAT (Rice, Tebonnet) (0.0625 kg/ha) it was 6.0; with ORYSAT (Rice, Tebonnet) (0.1250 kg/ha), 7.0; in the assay on ORYSAT (Rice, Tebonnet) (0.2500 kg/ha) it was 9.0.
As for `Cc1cc(C)cc(CN2C(=O)CSC2=Nc2cc(-n3c(=O)cc(C(F)(F)F)n(C)c3=O)c(F)cc2Cl)c1` [Compound 146, 3-{4-Chloro-5-{[3-(3,5-dimethylbenzyl)-4-oxo-2-thiazolidinylidene]amino}-2-fluorophenyl}-1-methyl-6-(trifluoromethyl)-2,4(1H,3H)-pyrimidinedione], the “Herbicidal rating CASOB” value with CASOB (Sicklepod) (rate 0.0156 kg/ha) is reported as 1.0; in the assay on CASOB (Sicklepod) (rate 0.0313 kg/ha), 2.0; in the assay on CASOB (Sicklepod) (rate 0.0625 kg/ha) it was 4.0. The “Herbicidal rating CHEAL” value in assay [1] (rate 0.0156 kg/ha), in assay [1] (rate 0.0313 kg/ha) and in assay [1] (rate 0.0625 kg/ha) was 9.0 each time. The “Herbicidal rating TRZAWR” value in assay [2] (rate 0.0156 kg/ha) is given as 2.0; in assay [2] (rate 0.0313 kg/ha), 3.5; in assay [2] (rate 0.0625 kg/ha) it was 4.5. For the same compound, the “Preemergence herbicidal rating CHEAL” value in assay [3] (setting [4]) was 0.0; in assay [3] (setting [5]), 9.0; in assay [3] (setting [6]) it was 9.0; in assay [3] (setting [7]) it was 9.0; in assay [3] (setting [8]), 9.0. Further, the “Preemergence herbicidal rating ORYSAT” value with ORYSAT (Rice, Tebonnet) (setting [4]) came to 0.0; in the assay with ORYSAT (Rice, Tebonnet) (setting [5]), 0.0; in the assay with ORYSAT (Rice, Tebonnet) (setting [6]), 0.0; in the assay on ORYSAT (Rice, Tebonnet) (setting [7]), 0.0; in the assay with ORYSAT (Rice, Tebonnet) (setting [8]), 1.0.
Take `Cn1c(C(F)(F)F)cc(=O)n(-c2cc(N=C3SCC(=O)N3Cc3cccnc3)c(Cl)cc2F)c1=O` [Compound 132, 3-{4-Chloro-2-fluoro-5-{[4-oxo-3-(3-pyridylmethyl)-2-thiazolidinylidene]amino}phenyl}-1-methyl-6-(trifluoromethyl)-2,4 (1H,3H)-pyrimidinedione]: the “Herbicidal rating CASOB” value in the assay with CASOB (Sicklepod) (rate 0.0156 kg/ha) is 1.0; in the assay with CASOB (Sicklepod) (rate 0.0313 kg/ha), 1.0; in the assay on CASOB (Sicklepod) (rate 0.0625 kg/ha) it was 6.0. Besides, the “Herbicidal rating CHEAL” value in assay [1] (rate 0.0156 kg/ha) is 4.0; in assay [1] (rate 0.0313 kg/ha), 4.0; in assay [1] (rate 0.0625 kg/ha) it was 9.0. The entries for the “Herbicidal rating TRZAWR” value in assay [2] (rate 0.0156 kg/ha), in assay [2] (rate 0.0313 kg/ha) and in assay [2] (rate 0.0625 kg/ha) were 3.0, 3.5 and 4.0, respectively. In addition, the “Preemergence herbicidal rating CHEAL” value in assay [3] (setting [6]), in assay [3] (setting [7]) and in assay [3] (setting [8]) was 9.0 throughout. In addition, the “Preemergence herbicidal rating ORYSAT” value in the assay with ORYSAT (Rice, Tebonnet) (setting [6]) was found to be 0.0; with ORYSAT (Rice, Tebonnet) (setting [7]) it was 0.0; in the assay on ORYSAT (Rice, Tebonnet) (setting [8]), 1.0.
Take `CC(C)N1C(=O)CSC1=Nc1cc(-n2c(=O)cc(C(F)(F)F)n(C)c2=O)c(F)cc1Cl` [Compound 164, 3-{4-Chloro-2-fluoro-5-[(3-isopropyl-4-oxo-2-thiazolidinylidene)amino]phenyl}-1-methyl-6-(trifluoromethyl)-2,4(1H,3H)-pyrimidinedione]: the “Herbicidal rating CASOB” value in the assay with CASOB (Sicklepod) (rate 0.0156 kg/ha) amounted to 2.0; in the assay with CASOB (Sicklepod) (rate 0.0313 kg/ha) it was 2.0; in the assay on CASOB (Sicklepod) (rate 0.0625 kg/ha) it was 5.0; in the assay on CASOB (Sicklepod) (rate 0.1250 kg/ha), 6.0. The “Herbicidal rating CHEAL” value in assay [1] (rate 0.0156 kg/ha), in assay [1] (rate 0.0313 kg/ha), in assay [1] (rate 0.0625 kg/ha) and in assay [1] (rate 0.1250 kg/ha) was 9.0 each time. Moreover, the “Herbicidal rating TRZAWR” value in assay [2] (rate 0.0156 kg/ha) came to 4.0; in assay [2] (rate 0.0313 kg/ha), 4.5; in assay [2] (rate 0.0625 kg/ha), 5.5; in assay [2] (rate 0.1250 kg/ha), 5.5. For the same compound, the “Preemergence herbicidal rating CHEAL” value in assay [3] (0.0156 kg/ha), in assay [3] (0.0313 kg/ha), in assay [3] (0.0625 kg/ha), in assay [3] (0.1250 kg/ha), in assay [3] (0.2500 kg/ha) and in assay [3] (0.5000 kg/ha) was 9.0 each time. Also, the “Preemergence herbicidal rating ORYSAT” value with ORYSAT (Rice, Tebonnet) (0.0156 kg/ha) is on record as 1.0; with ORYSAT (Rice, Tebonnet) (0.0313 kg/ha) it was 1.0; with ORYSAT (Rice, Tebonnet) (0.0625 kg/ha) it was 3.0; in the assay on ORYSAT (Rice, Tebonnet) (0.1250 kg/ha), 5.0; in the assay with ORYSAT (Rice, Tebonnet) (0.2500 kg/ha), 7.0; with ORYSAT (Rice, Tebonnet) (0.5000 kg/ha) it was 9.0.
